Experiments:
Experiment in all cases: relative viability (nuclei count vs DMSO), 5 days (fraction); higher = more cells survive
NCI-H3122 = tested on: NCI-H3122
How it was run: (§1)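 Relative viability was taken as the ratio of nuclei in treated wells to nuclei in vehicle wells. Lung cancer cell lines in 1536-well plates received compounds by pin tool one day after seeding, either one drug alone or a fixed anchor-drug dose plus five library-drug doses (not always all listed) in √10 steps. Nuclei were counted on 4× images after 5 days of treatment, and values are medians of duplicate plates.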

NCI-H2228 = tested on: NCI-H2228
How it was run: as §1

NCI-H2405 = tested on: NCI-H2405
How it was run: as §1

HCC-366 = tested on: HCC-366
How it was run: as §1

NCI-H2009 = tested on: NCI-H2009
How it was run: as §1

NCI-H596 = tested on: NCI-H596
How it was run: as §1

SW 1573 = tested on: SW 1573
How it was run: as §1

SK-MES-1 = tested on: SK-MES-1
How it was run: as §1

PC-14 = tested on: PC-14
How it was run: as §1

HOP-62 = tested on: HOP-62
How it was run: as §1

NCI-H2085 = tested on: NCI-H2085
How it was run: as §1

NCI-H1734 = tested on: NCI-H1734
How it was run: as §1

NCI-H1993 = tested on: NCI-H1993
How it was run: as §1

NCI-H2347 = tested on: NCI-H2347
How it was run: as §1

RERF-LC-KJ = tested on: RERF-LC-KJ
How it was run: as §1

HCC-78 = tested on: HCC-78
How it was run: as §1

NCI-H838 = tested on: NCI-H838
How it was run: as §1

CAL-12T = tested on: CAL-12T
How it was run: as §1

LC-2-ad = tested on: LC-2-ad
How it was run: as §1

NCI-H1355 = tested on: NCI-H1355
How it was run: as §1

EMC-BAC-2 = tested on: EMC-BAC-2
How it was run: as §1

LK-2 = tested on: LK-2
How it was run: as §1

Molecule O=c1[nH]c2ccccc2n1C1CCN(CCCC(c2ccc(F)cc2)c2ccc(F)cc2)CC1 [Pimozide] + C[C@]1(O)C[C@@H](c2nc(-c3ccc4ccc(-c5ccccc5)nc4c3)c3c(N)nccn32)C1 [Linsitinib] (partner 1 µM) has a relative viability (NCI-H3122; first compound 0.08 µM) of 1.01, a relative viability (NCI-H3122; first compound 0.253 µM) of 1.06 and a relative viability (NCI-H3122; first compound 0.8 µM) of 1. The relative viability (NCI-H3122; first compound 2.53 µM) was 1.05, the relative viability (NCI-H3122; first compound 8 µM) was 1.06 and the relative viability (NCI-H2228; first compound 0.08 µM) was 0.475. It also gave a relative viability (NCI-H2228; first compound 0.253 µM) of 0.909, a relative viability (NCI-H2228; first compound 0.8 µM) of 0.404 and a relative viability (NCI-H2228; first compound 2.53 µM) of 0.392. For the same molecule, the relative viability (NCI-H2228; first compound 8 µM) was 0.291, the relative viability (NCI-H2405; first compound 0.08 µM) was 0.888 and the relative viability (NCI-H2405; first compound 0.253 µM) was 0.771. It also gave a relative viability (NCI-H2405; first compound 0.8 µM) of 0.876, a relative viability (NCI-H2405; first compound 2.53 µM) of 0.814 and a relative viability (NCI-H2405; first compound 8 µM) of 0.7. The relative viability (HCC-366; first compound 0.08 µM) was 0.747, the relative viability (HCC-366; first compound 0.253 µM) was 0.67 and the relative viability (HCC-366; first compound 0.8 µM) was 0.7. It also gave a relative viability (HCC-366; first compound 2.53 µM) of 0.754, a relative viability (HCC-366; first compound 8 µM) of 0.677 and a relative viability (NCI-H2009; first compound 0.08 µM) of 1.19. The relative viability (NCI-H2009; first compound 0.253 µM) was 1.21, the relative viability (NCI-H2009; first compound 0.8 µM) was 1.2 and the relative viability (NCI-H2009; first compound 2.53 µM) was 1.2. It also gave a relative viability (NCI-H2009; first compound 8 µM) of 1.01, a relative viability (NCI-H596; first compound 0.08 µM) of 1.16 and a relative viability (NCI-H596; first compound 0.253 µM) of 1.12. It also gave a relative viability (NCI-H596; first compound 0.8 µM) of 1.04, a relative viability (NCI-H596; first compound 2.53 µM) of 0.895 and a relative viability (NCI-H596; first compound 8 µM) of 0.998. It also gave a relative viability (SW 1573; first compound 0.08 µM) of 0.744, a relative viability (SW 1573; first compound 0.253 µM) of 0.778 and a relative viability (SW 1573; first compound 0.8 µM) of 0.75. It also gave a relative viability (SW 1573; first compound 2.53 µM) of 0.721, a relative viability (SW 1573; first compound 8 µM) of 0.853 and a relative viability (SK-MES-1; first compound 0.08 µM) of 0.993. It also gave a relative viability (SK-MES-1; first compound 0.253 µM) of 1.04, a relative viability (SK-MES-1; first compound 0.8 µM) of 1.07 and a relative viability (SK-MES-1; first compound 2.53 µM) of 1.11. For the same molecule, the relative viability (SK-MES-1; first compound 8 µM) was 1.09, the relative viability (PC-14; first compound 0.253 µM) was 0.94 and the relative viability (PC-14; first compound 0.8 µM) was 0.99. The relative viability (PC-14; first compound 2.53 µM) was 0.938, the relative viability (PC-14; first compound 8 µM) was 0.91 and the relative viability (HOP-62; first compound 0.08 µM) was 0.847. It also gave a relative viability (HOP-62; first compound 0.253 µM) of 0.839, a relative viability (HOP-62; first compound 2.53 µM) of 1.04 and a relative viability (HOP-62; first compound 8 µM) of 0.754. The relative viability (NCI-H2085; first compound 0.08 µM) was 0.916, the relative viability (NCI-H2085; first compound 0.253 µM) was 0.934 and the relative viability (NCI-H2085; first compound 0.8 µM) was 0.818. The relative viability (NCI-H2085; first compound 2.53 µM) was 0.942, the relative viability (NCI-H2085; first compound 8 µM) was 0.762 and the relative viability (NCI-H1734; first compound 0.08 µM) was 0.88. It also gave a relative viability (NCI-H1734; first compound 0.253 µM) of 0.829, a relative viability (NCI-H1734; first compound 0.8 µM) of 0.878 and a relative viability (NCI-H1734; first compound 2.53 µM) of 0.944. The relative viability (NCI-H1734; first compound 8 µM) was 0.972, the relative viability (NCI-H1993; first compound 0.08 µM) was 0.662 and the relative viability (NCI-H1993; first compound 0.253 µM) was 0.659. For the same molecule, the relative viability (NCI-H1993; first compound 0.8 µM) was 0.571, the relative viability (NCI-H1993; first compound 2.53 µM) was 0.725 and the relative viability (NCI-H1993; first compound 8 µM) was 0.755. For the same molecule, the relative viability (NCI-H2347; first compound 0.08 µM) was 1.03, the relative viability (NCI-H2347; first compound 0.253 µM) was 0.941 and the relative viability (NCI-H2347; first compound 0.8 µM) was 0.836. The relative viability (NCI-H2347; first compound 2.53 µM) was 0.944, the relative viability (NCI-H2347; first compound 8 µM) was 0.958 and the relative viability (RERF-LC-KJ; first compound 0.08 µM) was 0.885. The relative viability (RERF-LC-KJ; first compound 0.253 µM) was 0.813, the relative viability (RERF-LC-KJ; first compound 0.8 µM) was 0.787 and the relative viability (RERF-LC-KJ; first compound 2.53 µM) was 0.842. The relative viability (RERF-LC-KJ; first compound 8 µM) was 0.8, the relative viability (HCC-78; first compound 0.08 µM) was 0.531 and the relative viability (HCC-78; first compound 0.253 µM) was 0.469. For the same molecule, the relative viability (HCC-78; first compound 0.8 µM) was 0.549, the relative viability (HCC-78; first compound 2.53 µM) was 0.46 and the relative viability (HCC-78; first compound 8 µM) was 0.536. The relative viability (NCI-H838; first compound 0.08 µM) was 1.01, the relative viability (NCI-H838; first compound 0.253 µM) was 0.999 and the relative viability (NCI-H838; first compound 0.8 µM) was 0.885. The relative viability (NCI-H838; first compound 2.53 µM) was 1.01, the relative viability (NCI-H838; first compound 8 µM) was 1.04 and the relative viability (CAL-12T; first compound 0.08 µM) was 0.745. The relative viability (CAL-12T; first compound 0.253 µM) was 0.803, the relative viability (CAL-12T; first compound 0.8 µM) was 0.936 and the relative viability (CAL-12T; first compound 2.53 µM) was 0.755. For the same molecule, the relative viability (CAL-12T; first compound 8 µM) was 0.788, the relative viability (LC-2-ad; first compound 0.08 µM) was 0.818 and the relative viability (LC-2-ad; first compound 0.253 µM) was 0.819. For the same molecule, the relative viability (LC-2-ad; first compound 0.8 µM) was 0.797, the relative viability (LC-2-ad; first compound 2.53 µM) was 0.891 and the relative viability (LC-2-ad; first compound 8 µM) was 0.746. It also gave a relative viability (NCI-H1355; first compound 0.08 µM) of 0.701, a relative viability (NCI-H1355; first compound 0.253 µM) of 0.804 and a relative viability (NCI-H1355; first compound 0.8 µM) of 0.758. It also gave a relative viability (NCI-H1355; first compound 2.53 µM) of 0.803, a relative viability (NCI-H1355; first compound 8 µM) of 0.762 and a relative viability (EMC-BAC-2; first compound 0.08 µM) of 0.768. It also gave a relative viability (EMC-BAC-2; first compound 0.253 µM) of 0.787, a relative viability (EMC-BAC-2; first compound 0.8 µM) of 0.828 and a relative viability (EMC-BAC-2; first compound 2.53 µM) of 0.828. For the same molecule, the relative viability (EMC-BAC-2; first compound 8 µM) was 0.749, the relative viability (LK-2; first compound 0.08 µM) was 0.52 and the relative viability (LK-2; first compound 0.253 µM) was 0.543. It also gave a relative viability (LK-2; first compound 0.8 µM) of 0.493, a relative viability (LK-2; first compound 2.53 µM) of 0.37 and a relative viability (LK-2; first compound 8 µM) of 0.371.
